Results published in a melting point compilation (Tetko et al.; mined from patent text by program, amines drawn as free bases though some values may be those of a salt).

SMILES	melting point
CC12CCC3c4ccc(O)cc4CC(Sc4ccc(C=CC(=O)O)cc4)C3C1CCC2O (configuration not stated)	215 to 220 °C
O=[N+]([O-])c1ccc(C=NCCc2cccs2)cc1	83.9 to 84.4 °C
Cn1c(-c2ccc(OC3CCN(C4CCC4)CC3)cc2)nc2ccccc2c1=O	168 to 171 °C
CC(=Cc1ccc(C(=O)O)cc1)c1ccc2c(c1)SCCC2(C)C	255 to 257 °C
COc1cc2c3c(n(C)c(=O)c2cc1OC)-c1cc2c(cc1C3=CCCCCBr)OCO2	196 to 197 °C
CC1(C)C=C(c2ccccc2)c2cccc3c2N1C(=O)C3=O	210 to 212 °C
C=C(C#N)CN1CCC(C(N)=O)CC1	127 to 129 °C
O=C(O)c1ccccc1COc1ccc(CCCO)cc1	139 to 140 °C
O=S(=O)(c1ccccc1)c1cncc(OC2SCC(O)C(O)C2O)c1 (configuration not stated)	86 °C
CCCCCCC(C)(C)c1ccc(C2=CCCNC2)c(O)c1	122 to 123 °C
N=C(N)NC(=O)c1nc(F)c(N)nc1N	233 °C
CC(C)SC(F)(F)c1nnc(N)s1	119 to 121 °C
CCC1(c2cccc(O)c2)CNCC(C)O1 (configuration not stated)	75 to 105 °C
COC(=O)COc1ccccc1Oc1cc(NC(C)=O)c(F)cc1Cl	139 °C
Cc1cc(O)ccc1NCCCCCCBr	142 to 144 °C
O=C1CCC(CSc2ccccc2)C(=O)N1CN1CCCCC1 (configuration not stated)	63 to 66 °C
Cc1cnc(-c2ccc(CBr)cc2)nc1	129 to 131 °C
O=[N+]([O-])c1ccc(OCc2ccc(Cl)nc2)cc1F	174 °C
CC(=O)NC1C(NC(=NC(=O)OC(C)(C)C)NC(=O)OC(C)(C)C)C=C(C(=O)OCCCO)OC1C(O)C1COC(C)(C)O1 (configuration not stated)	86 to 88 °C
CC(C)=CCOC1=CC(=O)c2ccccc2C1=O	60 °C
CC(=O)Nc1ccc2c(c1)N1CCCN=C1S2	178 °C
O=C(C=Cc1ccc(-c2ccc(O)c(Cl)c2)cc1)NO	172 to 175 °C
O=C1Nc2ccccc2C1CCCCN1CC=C(c2ccc(Cl)cc2)CC1 (configuration not stated)	122 to 124 °C
Cc1cc(C)c(NS(=O)(=O)c2cc(S(=O)(=O)Nc3c(C)cc(C)cc3C)c3cc(O)ccc3c2)c(C)c1	148 to 150 °C
c1ccc(C(N=C2NCCN2)c2ccccc2)cc1	189 to 190 °C
COC(C)(OC)c1nn(-c2c(Cl)cc(C(F)(F)F)cc2Cl)c(N)c1SC	149 °C

SMILES	melting point
COc1ccc(CN2C(=O)C3(COc4cc(OC(F)(F)F)ccc43)c3ccccc32)cc1 (configuration not stated)	82 to 84 °C
COc1ccc2c(c1)S(=O)(=O)N=CN2CCCl	126 to 130 °C
Oc1cc2cc(C3CCCC3)sc2c(Cl)c1Cl	62 to 63.5 °C
CC12CCC3C(CC4OC45CC=CCC35C)C1CC=C2Br (configuration not stated)	146 to 147 °C
Cn1c(C(F)(F)F)cc(=O)n(-c2cc(OCc3ccccc3Cl)c(Cl)cc2F)c1=O	126 to 129 °C
CC(C)(C)OC(=O)NC(CC1=CC(=O)NC1=O)C(=O)OC(C)(C)C (configuration not stated)	104 to 105 °C
CC(=O)OC1CCC2(C)C(CCC3C4CC5OC6(CC(C)C(C)(C)O6)C(C)(O)C5C4(C)CC(O)C32)C1 (configuration not stated)	194 to 195 °C
CN(C)C(=O)C(CCO)C1(C)CCCc2c1[nH]c1ccccc21 (configuration not stated)	145 to 146 °C
CC(=O)C(C)S(=O)(=O)c1ccc(C=C(C)c2ccc3c(c2)C(C)(C)CCC3(C)C)cc1 (configuration not stated)	139 to 141 °C
CCn1nc(C(=O)OC(C)C)cc(Nc2cncc3ccccc23)c1=O	192 to 193 °C
CCOC(=O)c1cn(C)nc1NCc1ccc(-c2ccccc2C#N)cc1	151 to 152 °C
O=C(O)COc1ccc(SCc2cccc(OCc3ccc(C(F)(F)F)cc3)c2)c2c1CCC2	145 to 146 °C
C#CCN(Cc1cc2c(=O)[nH]c(C)nc2cc1Br)c1ccc(C(=O)NC(CO)c2cccc([N+](=O)[O-])c2)cc1 (configuration not stated)	221 to 232 °C
COc1nc2cc(Cl)c(Cl)c(CSCc3ccccc3)c2nc1OC	121 to 122 °C
COC(=O)C=C1C(=O)NC(=O)N1C	100 °C
S=C(NCc1cccnc1)NC(=Nc1cccc2ccccc12)c1ccccc1	153 to 154 °C
O=C(O)c1c(Br)c(Br)cc2c1OCCO2	212 °C
COCCN(C)CCc1c(-c2ccc(N)cc2)sc2c1c(=O)n(-c1ccc3c(c1)OCO3)c(=O)n2Cc1c(F)cccc1F	200 to 202 °C
O=C(O)c1ccc(F)c2c1CC(N(CCCc1c[nH]c3ccc(F)cc13)C1CCC1)CO2 (configuration not stated)	140 °C
COC1=CC(=O)C(O)=C(CCCCCCCC2OC2CCCCCCCC2=C(O)C(=O)C=C(OC)C2=O)C1=O (configuration not stated)	134 to 136 °C
O=C(O)CC(=O)Nc1c(-c2ccccc2)c(=O)[nH]c2cc(Cl)ccc12	260 °C
CC1=C(C(=O)OCC2CC2)C(c2ccccc2C(F)(F)F)c2c(ccnc2OC(C)C)N1 (configuration not stated)	112 to 114 °C
O=C(c1ccccc1Nc1ccc(O)cc1)N1CCOCC1	214 to 216 °C
CCOC(=O)c1coc(-c2ccc(CO)cc2)n1	99 to 101 °C
CC(=O)N1CCN=C1Nc1cc(C)nn1-c1cccc(C(F)(F)F)c1	173 to 175 °C
COC(=O)c1cc2ccc(OCCN(C)C(=O)OC(C)(C)C)cc2oc1=O	128 to 129 °C

SMILES	melting point
CCOC(=O)c1cc(Cl)ccc1N	80 °C
CN(C)CCn1c(=O)c2c3oc4ccccc4oc3c3[nH]c4cc(O)ccc4c3c2c1=O	> 360 °C
CCCc1nn(C)c2c(=O)n(CCOc3ccc(NC(C)C(=O)OCC)cc3)c(CC)nc12 (configuration not stated)	100 to 104 °C
Cc1c(C)c(C)c(C2C(=O)Oc3c2cc(C(C)(C)C)cc3C(C)(C)C)c(C)c1C (configuration not stated)	185 to 190 °C
COc1ccc(OC)c(-c2cc(OC)cc3c2OC(CN)C3)c1 (configuration not stated)	128 to 130 °C
CCCCCCCCCCCCOCC1CN(c2cc3c(cc2F)c(=O)c(C(=O)O)cn3CC)CCN1C (configuration not stated)	166 to 168 °C
Cc1nc2c([nH]1)N(Cc1ccc(Cl)cc1)C1=NC(C)CN1C2=O (configuration not stated)	290 to 291 °C
CNc1nccc(Oc2ccc(NC(=O)Nc3ccc(CN4CCN(C(C)(C)C)CC4)c(C(F)(F)F)c3)cc2)n1	257 to 258 °C
CCOCn1cc(-c2ccnc(N)n2)c2c(OC)cc(Br)nc21	> 210 °C
Cc1cc(NC(=O)OC(C)(C)C)c(C)c2c1OC(C)(C)C2=O	144 to 145 °C
CS(=O)c1cccc(-n2cnc(-c3ccc(F)cc3)c2-c2ccncc2)c1 (configuration not stated)	233 to 234 °C
CC(=O)Nc1cnc2cccc(Oc3cc(-c4ccc(C(F)(F)F)cc4)ncn3)c2n1	237 °C
COc1ccc(/C=C(\C)C(=O)O)cc1	178 to 182 °C
Cc1c(C)c2ccc(OCc3ccccc3)cc2oc1=O	131 to 135 °C
Cc1c(=O)[nH]c(=O)n2ccsc12	> 230 °C
CC(=O)N1CC(=O)Nc2ccccc21	164 to 165 °C
N#Cc1oc2cc(Cl)ccc2c1O	205 °C
COc1ccc(N2CCN(c3c(C)c(C)c4c(c3C)C(O)(c3ccco3)C(C)(C)O4)CC2)cc1 (configuration not stated)	111 to 112 °C
CC1(C)Cc2cc(N)c3c(c2C(c2ccccc2)=N1)CC(C)(C)O3	158 to 162 °C
Nc1cc(NS(=O)(=O)CCl)ccc1F	128 to 129 °C
COc1ccc(COC(=O)NC(CO)Cc2ccc(O)cc2)cc1OC (configuration not stated)	152 to 155 °C
CCN1C(=O)C(C)(C)C(=O)N(C)c2cc(CN(CCc3cccnc3)S(=O)(=O)c3ccccc3)ccc21	143 to 146 °C
CCCCCCCCCCCCCc1cc(C(=O)OCCC)c[nH]1	51 to 52 °C
CCCCCCCCCCCCCCCCCCOc1cccc(N(CC(=O)OCc2ccccc2)CC(=O)OCc2ccccc2)c1	55 to 57 °C
CCC1Cc2cc(OC(C)(C)C(=O)O)c(Cl)c(Cl)c2C1=O (configuration not stated)	165 to 166 °C
COC(=O)CCCNC(=O)c1cc(O)ccc1O	155 to 159 °C

SMILES	melting point
CN(C)c1cccc(C(=O)N2CCN(CCc3ccc(Cl)cc3)CC2)c1	110 to 112 °C
Cc1ccccc1-n1c(=O)nc(N(C)C)n(C)c1=O	159 to 162 °C
Cc1c(C)c2c(c(C)c1N)CC(C)(CN1CCN(C(=O)c3ccc(Cl)cc3)CC1)O2 (configuration not stated)	136 to 138 °C
O=S(=O)(Nc1ncncc1-c1ccc(Cl)cc1)c1ccc(O)cc1	231 to 232 °C
COc1ccc(S(=O)(=O)N2CSCC2=O)cc1	129 to 130 °C
CCn1c(=O)c2[nH]c(C(C)C)nc2n(Cc2ccc3c(c2)OCO3)c1=O	200 to 232 °C
CN(C)C(=O)C1Oc2ccc([N+](=O)[O-])cc2O1 (configuration not stated)	109 °C
O=C1N[C@@H](Cc2ccccc2)C(c2ccccc2)(c2ccccc2)O1	259 to 261 °C
COc1ccc(O)c2c1C(C)(C)CCC2(C)C	127 °C
Cc1nc2ccc3c(c2o1)OC(CN1C2CCC1CC(O)(c1ccccc1)C2)CO3 (configuration not stated)	203 to 205 °C
CCOC(=O)c1cc2ccc(SCc3ccc(OC)cc3)cc2nc1Cl	110 to 112 °C
C#CCC(NC(=O)c1ccc(C)cc1)C(C)=O (configuration not stated)	65 to 67 °C
COc1ccc(C=CCN2CCc3nc(N)sc3CC2)cc1OC	122 to 126 °C
CNC(=O)[C@@H](C[C@H](O)[C@H](CC1CCCCC1)NC(=O)[C@H](Cc1cscn1)NC(=O)OC(C)(C)C)C(C)C	183 to 185 °C
CCOC(=O)c1ccc(OCCC2CCN(c3ccc(F)nn3)CC2)cc1	132 °C
Cn1cncc1C(O)(c1ccc(Cl)cc1)c1ccc2c(c1)C(c1cccc(Cl)c1)SCC(=O)N2CC1CC1 (configuration not stated)	245 °C
O=Cc1c[nH]c2c1ccc1c3cc([N+](=O)[O-])ccc3[nH]c12	> 250 °C
CC(C)(C)OC(=O)NC(O)CCO (configuration not stated)	83 to 85 °C
COc1cc(NCCCCCCN2CCCN(C)CC2)c2nccc(C)c2c1	137 to 139 °C
N#Cc1c(N2CCN(C(=O)c3ccco3)CC2)c2cc(Cl)cnc2[nH]c1=O	303 °C
O=C(O)C1=Cc2cc(Cl)cc(C#Cc3ccccc3)c2OC1C(F)(F)F (configuration not stated)	190 to 192 °C
CCNCCCC(O)c1ccc(NS(C)(=O)=O)cc1 (configuration not stated)	174 to 176 °C
CCN(CC)C(=O)c1c(C)cccc1Cl	48 to 49 °C
CNC(=O)C1=CC(CF)(CF)Oc2ccc([N+](=O)[O-])cc21	178 to 179 °C
